These results are taken from patent US5378723A (priority 1994, dated 1995).

“Also recorded” adds a separate entry of the source. Read-outs that look alike come from different tables or passages of the source.

For one experiment, the system named is neuromuscular AChR. The settings on record: natural isomer; cited from earlier work.
Experiment [1] concerns cholinesterase (ChE). The settings on record: cited from earlier work.
For experiment [2], the system named is cholinesterase (ChE). Format: biochemical.
For a further experiment, the system named is AChE. Type of experiment: in vivo, rat. The settings on record: for inhibiting properties and persistence: dialkylcarbamate vs mono-substituted carbamate.
The target in another experiment is T1, human erythrocyte AChE (Homo sapiens, UniProt P22303).
T1 construct: Erythrocytes were washed three times in isotonic saline, lysed; from tissue; host or cells: human erythrocytes from freshly collected blood, washed, lysed in 0.5% Triton-X
Kind of experiment: biochemical.

The target of another experiment is T2, human plasma BChE (Homo sapiens, UniProt P06276).
T2 construct: the plasma was separated and diluted; from tissue; host or cells: human plasma from freshly collected blood, diluted 1:125
Put plainly: biochemical.

Setting [3] is: AChE vs BChE, in vitro, used as biological standards in this art area.
Setting [4] is: AChE vs BChE, in vitro, biological standards.

T2 sequence (P06276 29-602): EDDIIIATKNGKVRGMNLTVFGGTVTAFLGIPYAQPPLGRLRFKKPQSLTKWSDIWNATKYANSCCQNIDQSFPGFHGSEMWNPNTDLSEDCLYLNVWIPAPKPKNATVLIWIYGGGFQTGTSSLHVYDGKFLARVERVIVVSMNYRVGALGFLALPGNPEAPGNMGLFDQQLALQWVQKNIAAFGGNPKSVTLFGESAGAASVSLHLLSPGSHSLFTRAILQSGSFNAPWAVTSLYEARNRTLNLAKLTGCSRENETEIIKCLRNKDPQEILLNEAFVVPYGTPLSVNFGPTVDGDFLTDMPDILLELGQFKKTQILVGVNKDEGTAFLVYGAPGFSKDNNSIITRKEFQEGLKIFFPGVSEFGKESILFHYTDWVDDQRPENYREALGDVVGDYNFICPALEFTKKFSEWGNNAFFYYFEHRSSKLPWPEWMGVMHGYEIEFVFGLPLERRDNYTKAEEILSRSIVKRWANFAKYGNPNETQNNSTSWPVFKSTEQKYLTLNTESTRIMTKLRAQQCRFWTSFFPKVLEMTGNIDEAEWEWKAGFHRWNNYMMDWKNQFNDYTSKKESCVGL
T1 sequence (P22303-2 with tags, fused parts or gaps limits assumed): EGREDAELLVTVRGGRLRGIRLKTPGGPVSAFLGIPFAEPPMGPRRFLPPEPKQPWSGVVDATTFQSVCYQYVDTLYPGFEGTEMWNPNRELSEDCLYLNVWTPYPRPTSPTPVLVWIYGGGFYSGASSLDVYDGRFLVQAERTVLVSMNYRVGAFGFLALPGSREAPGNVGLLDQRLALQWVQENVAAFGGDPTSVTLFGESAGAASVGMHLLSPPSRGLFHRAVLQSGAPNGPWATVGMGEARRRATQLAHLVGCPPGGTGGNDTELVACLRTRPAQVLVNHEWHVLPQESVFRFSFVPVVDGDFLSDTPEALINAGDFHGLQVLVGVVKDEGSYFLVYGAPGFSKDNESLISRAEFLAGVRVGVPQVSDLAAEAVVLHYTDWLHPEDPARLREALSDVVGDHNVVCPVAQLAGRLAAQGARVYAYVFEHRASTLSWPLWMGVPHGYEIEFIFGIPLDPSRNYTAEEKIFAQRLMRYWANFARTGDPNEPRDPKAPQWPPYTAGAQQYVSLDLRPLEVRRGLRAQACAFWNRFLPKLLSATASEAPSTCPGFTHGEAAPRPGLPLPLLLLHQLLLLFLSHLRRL

As for `CNC(=O)Oc1ccc2c(c1)[C@]1(C)CCN(C)[C@@H]1N2C` [(-)-physostigmine], the “properties at the neuromuscular AChR” value in the experiment with neuromuscular AChR was “blocking properties as well as agonist properties”. In the experiment on cholinesterase (ChE) [1], the “inhibition of AChE and BChE in vitro, comparison” value (“inhibition of AChE and BChE” for short) is given as “similarly at similar concentrations”; the “inhibition of cholinesterases in vitro and in vivo” value is “potent inhibitors of cholinesterases in vitro and in vivo”. Moreover, the “inhibition of AChE and BChE” value in the experiment on cholinesterase (ChE) [2] is “similarly at similar concentrations”. Moreover, in the experiment with AChE (rat, in vivo, iv), the “duration of action of AChE inhibition” value is “duration of action is short” and the “in vivo inhibition of AChE” value is on record as “good inhibition properties”.
Regarding `CC(C)c1ccccc1NC(=O)Oc1ccc2c(c1)[C@]1(C)CCS[C@@H]1N2C` [Ex. 6, (-)-3,3a,8,8a-tetrahydro-3a,8-dimethy-2H-thieno[2,3-b]indole-5-ol 2'-isopropylphenylcarbamate], the IC50 at human erythrocyte AChE is 25.5 ± 3.3 nM; at human plasma BChE, 963 ± 106 nM.
For `CC(C)c1ccc(NC(=O)Oc2ccc3c(c2)[C@]2(C)CCS[C@@H]2N3C)cc1` [Ex. 7, (-)-3,3a,8,8a-tetrahydro-3a,8-dimethyl-2H-thieno[2,3-b]indole-5-ol 4'-isopropylphenylcarbamate] the same measures were over 10000 nM and 45.3 ± 12.4 nM.
Consider `CNC(=O)Oc1ccc2c(c1)[C@]1(C)CCN[C@@H]1N2C` [(-)-N(1)-Norphysostigmine], for which the “inhibition of AChE and BChE” value with cholinesterase (ChE) [1] (setting [3]) and in the experiment on cholinesterase (ChE) [2] (setting [4]) was “similarly at similar concentrations” throughout.
As to `Cc1ccc(NC(=O)Oc2ccc3c(c2)[C@]2(C)CCS[C@@H]2N3C)c(C)c1` [Ex. 8, (-) -3,3a,8,8a-tetrahydro-3a,8-dimethyl-2H-thieno[2,3-b]indole-5-ol 2',4'-dimethylphenylcarbamate], the IC50 at human erythrocyte AChE was 26.3 ± 3.8 nM; at human plasma BChE it was 1870 ± 291 nM.
For `CCCCNC(=O)Oc1ccc2c(c1)[C@]1(C)CCS[C@@H]1N2C` [Ex. 1, (-)-3,3a, 8,8a-tetrahydro-3a, 8-dimethyl-2H-thieno-[2,3-b]indole-5-ol butyl carbamate] the same measures were 13.5 ± 1.5 nM and 0.7 ± 0.1 nM.
Regarding `CN(C)C(=O)Oc1ccc2c(c1)[C@]1(C)CCS[C@@H]1N2C` [Ex. 9, (-)-3,3a,8,8a-tetrahydro-3a,8-dimethyl-2H-thieno[2,3-b]indole-5-ol N,N-dimethylcarbamate], the values for the IC50 on human erythrocyte AChE and against human plasma BChE were 197 ± 34.1 nM and 22.5 ± 0.1 nM, respectively. Further, the “inhibiting properties and persistence” value with AChE is “longlasting inhibiting properties”.
As for `CNC(=O)Oc1ccc2c(c1)[C@]1(C)CCS[C@@H]1N2C` [(-)-thiaphysovenine], the “inhibiting properties and persistence” value with AChE was “good inhibition properties but does not persist”. Besides, the “duration of action / persistence of AChE inhibition” value in the experiment with AChE (rat plasma, i.v., 5 mg/kg, 480 minute period, FIG. 2) is given as “short duration of action”. Moreover, in the experiment with AChE (rat plasma, i.v., FIG. 1), the “duration of action of AChE inhibition” value is “duration of action is short” and the “in vivo inhibition of AChE” value was “good inhibition properties”.
`CNC(=O)Oc1ccc2c(c1)[C@@]1(C)CCN(C)[C@H]1N2C` [(+)-physostigmine]: the “inhibition of cholinesterase (ChE)” value with cholinesterase (ChE) [1] was “only negligible inhibition; also recorded: only negligible ChE inhibitory activity”.
Regarding `CN1c2ccc(OC(=O)Nc3ccccc3)cc2[C@]2(C)CCS[C@H]12` [Ex. 3, (-)-3,3a,8,8a-tetrahydro-3a,8-dimethyl-2H-thieno[2,3-b]indole-5-ol phenylcarbamate], the 50% inhibitory concentration (IC50) against human erythrocyte AChE stood at 27.2 ± 7.1 nM; against human plasma BChE, 1660 ± 354 nM.
As to `CCc1ccccc1NC(=O)Oc1ccc2c(c1)[C@]1(C)CCS[C@@H]1N2C` [Ex. 5, (-)-3,3a,8,8a-tetrahydro-3a,8-dimethyl-2H-thieno[2,3-b]indole-5-ol 2'-ethylphenylcarbamate], the values for the IC50 at human erythrocyte AChE and against human plasma BChE were 30.1 ± 0.2 nM and 3430 ± 259 nM, respectively.
For `CCCCCCCNC(=O)Oc1ccc2c(c1)[C@]1(C)CCS[C@@H]1N2C` [Ex. 2, (-)-3,3a,8,8a-tetrahydro-3a,8-dimethyl-2H-thieno[2,3-b]indole-5-ol heptylcarbamate] the same measures were 25.7 ± 2.8 nM and 6.8 ± 1.3 nM.
Taken in the same sequence, the figures for `Cc1ccccc1NC(=O)Oc1ccc2c(c1)[C@]1(C)CCS[C@@H]1N2C` [Ex. 4, (-)-3,3a,8,8a-tetrahydro-3a,8-dimethyl;-2H-thieno[2,3-b]indole-5-ol 2'-methylphenylcarbamate] were 29 ± 5.6 nM and 5280 ± 354 nM.
`CNC(=O)Oc1ccc2c(c1)[C@]1(C)CCO[C@@H]1N2C` [(-)-physovenine] displayed an IC50 on human plasma BChE of 2.7 ± 1.4 nM. Further, the “inhibition of AChE and BChE” value with cholinesterase (ChE) [1] (setting [3]) and in the experiment with cholinesterase (ChE) [2] (setting [4]) was “similarly at similar concentrations” in each case. The “inhibition of cholinesterases in vitro and in vivo” value in the experiment with cholinesterase (ChE) [1] (prior art) was “potent inhibitors of cholinesterases in vitro and in vivo”.

In general, IC50 refers to the concentration needed to halve the response being measured. A low value points to greater potency in that assay.
